SMILES strings stand for the structures.

The assay concerns the target T1, Bacillus lentus alkaline protease F49 (Lederbergia lenta, UniProt P29599, A188P/L211D/S3T/V193M/V199I).
T1 sequence (P29599 with tags, fused parts or gaps A188P/V193M/V199I/L211D limits assumed): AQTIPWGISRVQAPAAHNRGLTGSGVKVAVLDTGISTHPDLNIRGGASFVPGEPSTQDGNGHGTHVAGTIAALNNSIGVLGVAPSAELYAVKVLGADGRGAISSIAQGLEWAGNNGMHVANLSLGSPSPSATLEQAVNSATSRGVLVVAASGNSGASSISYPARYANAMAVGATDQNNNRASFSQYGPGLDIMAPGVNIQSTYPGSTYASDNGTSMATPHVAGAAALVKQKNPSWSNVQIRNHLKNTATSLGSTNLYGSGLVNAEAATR
In words: Residual protease activity in the presence of an inhibitor (AAPFpNA substrate). Format: biochemical. As to conditions: compound 10 mM final concentration; incubation 5 min at pH 8.6 and 25° C.; batch without compound set at 100%. As to the method: In parallel reaction batches, the succinyl-alanine-alanine-proline-phenylalanine-para-nitroanilide substrate (AAPFpNA; Bachem L-1400) and 5×10^−9 or 1×10^−8 M of the protease were prepared in 100 mM BrijTM35 Tris buffer, […], 0.1% (w/v). The compounds to be tested (listed below) were added at a final concentration of 10 mM. They were each dissolved in anhydrous DMSO, the effects of DMSO on enzymatic activity having been corrected via the corresponding reference having the same quantity of DMSO but without the relevant compound. Incubation occurred for 5 min at pH 8.6 and 25° C. The corresponding reaction mixture with protease, but without the relevant compound, served as a comparison. The protease activity in these comparison batches was set at 100%.

As for `CCCCOP(=O)(O)OCCCC` [V1, dibutyl phosphate], the residual protease activity is given as 45%.
Consider `O=P(O)(OCc1ccccc1)OCc1ccccc1` [V2, dibenzyl phosphate], for which the residual protease activity came to 56%.

Source of the values: patent publication US8466098B2, “Washing agent having stabilized enzymes” (Henkel AG & Co. KGaA, priority 2007, dated 2013).
